# Earlier results in patent publication US20230098686A1, “NERVE SPECIFIC FLUOROPHORE FORMULATIONS FOR DIRECT AND SYSTEMIC ADMINISTRATION” (OREGON HEALTH & SCIENCE UNIVERSITY, priority 2020, published 2023).
# System: nerve tissue
# Details: previous studies
smiles,measurement,value
CC/N=c1/cc2oc3cc(NCC)c(C)cc3nc-2cc1C [Oxazine 4],nerve specificity,high nerve-specificity
